From patent US20230338337A1, “BIOMARKERS FOR CANCER THERAPY USING MDM2 ANTAGONISTS” (OTSUKA PHARMACEUTICAL CO., LTD., priority 2019, published 2023)
Read-outs that look alike come from different tables or passages of the source. One block for each substance: values may come before it.

Experiments:
SJSA-1 = assay: Protocol B: CellTiter-Glo cell viability assay; conditions: Protocol B; for SJSA1 (Protocol B) % inhibition at 10: at 10 μM; for IC50: read-out: SJSA1 IC50 (μM) (Protocol B)
[1] = target: MDM2-p53 interaction (in vitro translated MDM2) (Homo sapiens (Human), UniProt Q00987); assay: MDM2-p53 interaction 96-well plate binding assay (ELISA); conditions: for MDM2 % inhibition at 0.10: at 0.10 μM; for MDM2 % inhibition at 0.0010: at 0.0010 μM
MDM2-p53 interaction (in vitro translated MDM2), sequence (Q00987 whole entry): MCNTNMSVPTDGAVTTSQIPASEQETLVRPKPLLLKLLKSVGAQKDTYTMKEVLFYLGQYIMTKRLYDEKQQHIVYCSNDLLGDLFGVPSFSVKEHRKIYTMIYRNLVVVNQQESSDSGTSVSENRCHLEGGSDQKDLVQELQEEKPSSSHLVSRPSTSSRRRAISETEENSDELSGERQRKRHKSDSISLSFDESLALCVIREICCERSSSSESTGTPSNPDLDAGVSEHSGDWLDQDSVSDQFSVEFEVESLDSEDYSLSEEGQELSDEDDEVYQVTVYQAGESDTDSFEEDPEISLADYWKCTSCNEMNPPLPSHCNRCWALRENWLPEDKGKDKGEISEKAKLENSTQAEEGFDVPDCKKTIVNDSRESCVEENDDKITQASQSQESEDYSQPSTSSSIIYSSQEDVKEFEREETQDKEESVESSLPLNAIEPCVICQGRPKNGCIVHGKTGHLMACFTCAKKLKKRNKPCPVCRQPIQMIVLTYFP

Substance: 6-{[(1R)-1-(4-chlorophenyl)-7-fluoro-5-[1-(4-fluorooxan-4-yl)-1-hydroxypropyl]-1-(2-hydroxyethoxy)-3-oxo-2,3-dihydro-1H-isoindol-2-yl]methyl}pyridine-3-carbonitrile [Example 500]
SJSA1 (Protocol B) % inhibition at 10 (SJSA-1): 16% at 10 | MDM2 % inhibition at 0.10 [1]: 21%@0.10

Substance: 2-{[(1R)-1-(4-chlorophenyl)-7-fluoro-5-[1-(4-fluoropiperidin-4-yl)-1-hydroxypropyl]-3-oxo-1-[(3S)-oxolan-3-yloxy]-2,3-dihydro-1H-isoindol-2-yl]methyl}pyrimidine-5-carbonitrile [Example 547]
IC50 (SJSA-1): 0.96 µM | MDM2 % inhibition at 0.0010 [1]: 82%@0.0010

Substance: 2-{[(1R)-1-(4-chlorophenyl)-7-fluoro-5-[(1S)-1-(4-fluorooxan-4-yl)-1-hydroxypropyl]-3-oxo-1-[(3S)-oxolan-3-yloxy]-2,3-dihydro-1H-isoindol-2-yl]methyl}pyrimidine-5-carbonitrile [Example 508]
SJSA1 (Protocol B) % inhibition at 10 (SJSA-1): 11% at 10 | MDM2 % inhibition at 0.10 [1]: 17%@0.10

Substance: 1-({[(1R)-1-(4-chlorophenyl)-2-[(5-chloropyrimidin-2-yl)methyl]-7-fluoro-5-[1-hydroxy-1-(1-methyl-1H-imidazol-4-yl)propyl]-3-oxo-2,3-dihydro-1H-isoindol-1-yl]oxy}methyl)cyclopropane-1-carboxamide [Example 485]
IC50 (SJSA-1): 4.2 µM | MDM2 % inhibition at 0.10 [1]: 58%@0.10

Substance: 2-{[(1R)-1-(4-chlorophenyl)-7-fluoro-5-[(1R)-1-(4-fluorooxan-4-yl)-1-hydroxypropyl]-3-oxo-1-[(3S)-oxolan-3-yloxy]-2,3-dihydro-1H-isoindol-2-yl]methyl}pyrimidine-5-carbonitrile [Example 507]
IC50 (SJSA-1): 0.02 µM | MDM2 % inhibition at 0.0030 ([1]; at 0.0030 μM): 65%@0.0030

Substance: (3R)-3-(4-chlorophenyl)-2-[(5-chloropyridin-2-yl)methyl]-4-fluoro-3-[(1-{[(2-hydroxyethyl)amino]methyl}cyclopropyl)methoxy]-6-(2-hydroxypropan-2-yl)-2,3-dihydro-1H-isoindol-1-one [Example 326]
IC50 (SJSA-1): 2 µM | MDM2 % at concentration ([1]; at 0.030 μM): 50%@0.030

Substance: (3R)-3-(4-chlorophenyl)-2-[(5-chloropyrimidin-2-yl)methyl]-4-fluoro-6-[1-(4-fluoropiperidin-4-yl)-1-hydroxypropyl]-3-[(2R)-2-hydroxypropoxy]-2,3-dihydro-1H-isoindol-1-one [Example 543]
IC50 (SJSA-1): 0.69 µM | MDM2 % inhibition at 0.0010 [1]: 68%@0.0010

More lines, now with the values ahead:

IC50 (SJSA-1): 0.6 µM | MDM2 % inhibition at 0.030 ([1]; at 0.030 μM): 51%@0.030
Substance: (3R)-3-(4-chlorophenyl)-2-[(5-chloropyrimidin-2-yl)methyl]-4-fluoro-6-[1-hydroxy-1-(1-methyl-1H-imidazol-4-yl)propyl]-3-{[1-(hydroxymethyl)cyclopropyl]methoxy}-2,3-dihydro-1H-isoindol-1-one [Example 476]

IC50 (SJSA-1): 2.3 µM | MDM2 % inhibition at 0.030 ([1]; at 0.030 μM): 43%@0.030
Substance: 6-{[(1R)-1-(4-chlorophenyl)-7-fluoro-3-oxo-1-[(3S)-oxolan-3-yloxy]-5-[2,2,2-trifluoro-1-hydroxy-1-(1-methyl-1H-pyrazol-4-yl)ethyl]-2,3-dihydro-1H-isoindol-2-yl]methyl}pyridine-3-carbonitrile [Example 371]

IC50 (SJSA-1): 6.2 µM | MDM2 % inhibition at 0.030 ([1]; at 0.030 μM): 45%@0.030
Substance: 5-{[(1R)-1-(4-chlorophenyl)-7-fluoro-5-[1-hydroxy-1-(1-methyl-1H-imidazol-4-yl)propyl]-3-oxo-1-[(3S)-oxolan-3-yloxy]-2,3-dihydro-1H-isoindol-2-yl]methyl}pyridine-2-carbonitrile [Example 432]

IC50 (SJSA-1): 0.58 µM | MDM2 % at concentration [1]: 62%@0.0010
Substance: (3R)-2-[(5-chloro-1-oxo-1λ^5-pyridin-2-yl)methyl]-3-(4-chlorophenyl)-4-fluoro-6-[1-hydroxy-1-(1-methyl-1H-pyrazol-4-yl)ethyl]-3-{[1-(hydroxymethyl)cyclopropyl]methoxy}-2,3-dihydro-1H-isoindol-1-one [Example 407]
